Laboratory results: patent EP1724268A1, “COMPOUND HAVING TGF-BETA INHIBITORY ACTIVITY AND PHARMACEUTICAL COMPOSITION CONTAINING SAME” (KIRIN BEER KABUSHIKI KAISHA, priority 2004, dated 2005)

Tested on: TGFβ signal
Assay: TGFβ signal inhibitory activity, (SBE)4-Luc reporter in A549 cells (Test Examples 1A and 1B)
Type: cell-based, human
Conditions: for TGFβ inhibition rate, %: compounds of Reference Examples (Test Example 1B); for inhibition at 3 µM / inhibition at 10 µM / inhibition at 1 µM: Homo sapiens, A549, TGFβ-1 2 ng/ml, 4 hr, Table 1A, read-out: TGFβ inhibition rate, %; for inhibition at 3 µM: test compound 3 µM; for inhibition at 10 µM: test compound 10 µM; for inhibition at 1 µM: test compound 1 µM
Description: Test Example 1A: TGFβ signal inhibitory activity (in vitro test) The compounds according to the present invention was evaluated for TGFβ signal inhibitory activity according to the method described in J. Boil .Chem., 273, 21145-21152 (1998). Specifically, a plasmid having four tandem binding sequences of Smad3, a TGF-beta signal transducer, to the upstream of a luciferases gene were used as a reporter plasmid ((SBE)4-Luc) to detect TGF-beta signal, This reporter gene was introduced into human pulmonary carcinoma epithelial cells (A549) (available from ATCC) to establish a stable cell line. A test compound and TGFβ-1 (2 ng/ ml) were added to the cells, and the mixture was cultured for 4 hr. In this case, the compounds according to the present invention synthesized in the Examples were used as the test compound. After the culture, the luciferase activity of the cells were measured by chemiluminescence (Steady Glo (trademark) luciferase assay system, available from Promega). Likewise, the luciferase activity was measured as a control against the culture of cells with the addition of TGFβ only and the culture of cells without the addition of both TGFβ and the test compound.
The TGFβ inhibition (%) was calculated by the following equation, based on the measurement results. TGFβ inhibition(%) = (A-B)/(A-C) × 100 [formula] wherein • A: luciferase activity with the addition of TGFβ1 and without the addition of test compound (relative luciferase unit), • B: luciferase activity with the addition of both TGFβ1 and test compound (relative luciferase unit), and • C: luciferase activity without the addition of both TGFβ1 and test compound (relative luciferase unit).
The test was carried out for each of test compound at the concentrations of 3 µM and 10 µM. For certain test compounds, the test was further carried out for test compound at the concentration of 1 µM.
For the compounds of Reference Examples, the TGFβ signal inhibitory activity was evaluated in the same manner as in Test Example 1A.

Molecule	TGFβ inhibition rate, % (3 µM)	TGFβ inhibition rate, % (10 µM)	inhibition at 3 µM	inhibition at 10 µM	inhibition at 1 µM
4-(6-Fluoro-2-iodo-pyridin-3-yloxy)-6,7-dimethoxy-quinoline [Compound r211]	87%	100%	–	–	–
Cc1cc(Oc2ccnc3ccccc23)c(-c2ccccn2)nc1C [Compound 1, 5,6-Dimethyl-3-(quinolin-4-yloxy)-[2,2']bipyridine]	–	–	100%	100%	–
Cc1cc(Oc2ccnc3ccc(Br)cc23)c(-c2ccccn2)nc1C [Compound 2, 3-(6-Bromo-quinolin-4-yloxy)-5,6-dimethyl-[2,2']bipyridine]	–	–	100%	100%	–
Cc1cc(Oc2ccnc3ccc(C(F)(F)F)cc23)c(-c2ccccn2)nc1C [Compound 3, 5,6-Dimethyl-3-(6-trifluoromethyl-quinolin-4-yloxy)-[2,2']bipyridine]	–	–	99%	–	79%
COc1ccc2nccc(Oc3cc(C)c(C)nc3-c3ccccn3)c2c1 [Compound 4, 3-(6-Methoxy-quinolin-4-yloxy)-5,6-dimethyl-[2,2']bipyridine]	–	–	100%	–	94%
Cc1cc(Oc2ccnc3ccc(-c4ccccc4)cc23)c(-c2ccccn2)nc1C [Compound 5, 5,6-Dimethyl-3-(6-phenyl-quinolin-4-yloxy)-[2,2']bipyridine]	–	–	79%	100%	–
Cc1cc(Oc2ccnc3ccc(-c4cccnc4)cc23)c(-c2ccccn2)nc1C [Compound 6, 5,6-Dimethyl-3-(6-pyridin-3-yl-quinolin-4-yloxy)-[2,2']bipyridine]	–	–	100%	100%	–
Cc1cc(Oc2ccnc3ccc(-c4ccncc4)cc23)c(-c2ccccn2)nc1C [Compound 7, 5,6-Dimethyl-3-(6-pyridin-4-yl-quinolin-4-yloxy)-[2,2']bipyridine]	–	–	100%	100%	–
Cc1ccc(-c2ccc3nccc(Oc4cc(C)c(C)nc4-c4ccccn4)c3c2)cc1 [Compound 8, 5,6-Dimethyl-3-(6-p-tolyl-quinolin-4-yloxy)-[2,2']bipyridine]	–	–	60%	100%	–
Cc1cc(Oc2ccnc3ccc(-c4ccccc4N)cc23)c(-c2ccccn2)nc1C [Compound 9, 2-[4-(5,6-Dimethyl-[2,2']bipyridin-3-yloxy)-quinolin-6-yl]-phenylamine]	–	–	87%	100%	–
Cc1cc(Oc2ccnc3ccc(-c4cccc(N)c4)cc23)c(-c2ccccn2)nc1C [Compound 10, 3-[4-(5,6-Dimethyl-[2,2']bipyridin-3-yloxy)-quinolin-6-yl]-phenylamine]	–	–	100%	100%	–
Cc1cc(Oc2ccnc3ccc(-c4cccc(O)c4)cc23)c(-c2ccccn2)nc1C [Compound 11, 3-[4-(5,6-Dimethyl-[2,2']bipyridin-3-yloxy)-quinolin-6-yl]-phenol]	–	–	100%	100%	–
Cc1cc(Oc2ccnc3ccc(-c4ccc(O)cc4)cc23)c(-c2ccccn2)nc1C [Compound 12, 4-[4-(5,6-Dimethyl-[2,2']bipyridin-3-yloxy)-quinolin-6-yl]-phenol]	–	–	100%	100%	–
Cc1cc(Oc2ccnc3cc(Cl)ccc23)c(-c2ccccn2)nc1C [Compound 13, 3-(7-Chloro-quinolin-4-yloxy)-5,6-dimethyl-[2,2']bipyridine]	–	–	99%	100%	–
Cc1cc(Oc2ccnc3cc(Br)ccc23)c(-c2ccccn2)nc1C [Compound 14, 3-(7-Bromo-quinolin-4-yloxy)-5,6-dimethyl-[2,2']bipyridine]	–	–	100%	100%	–
Cc1cc(Oc2ccnc3cc(C(F)(F)F)ccc23)c(-c2ccccn2)nc1C [Compound 15, 5,6-Dimethyl-3-(7-trifluoromethyl-quinolin-4-yloxy)-[2,2']bipyridine]	–	–	99%	100%	–
COc1ccc2c(Oc3cc(C)c(C)nc3-c3ccccn3)ccnc2c1 [Compound 16, 3-(7-Methoxy-quinolin-4-yloxy)-5,6-dimethyl-[2,2']bipyridine]	–	–	100%	–	97%
Cc1cc(Oc2ccnc3cc(-c4ccccc4)ccc23)c(-c2ccccn2)nc1C [Compound 17, 5,6-Dimethyl-3-(7-phenyl-quinolin-4-yloxy)-[2,2']bipyridine]	–	–	98%	100%	–

Molecule	TGFβ inhibition rate, % (3 µM)	TGFβ inhibition rate, % (10 µM)	inhibition at 3 µM	inhibition at 10 µM	inhibition at 1 µM
Cc1cc(Oc2ccnc3cc(-c4cccnc4)ccc23)c(-c2ccccn2)nc1C [Compound 18, 5,6-Dimethyl-3-(7-pyridin-3-yl-quinolin-4-yloxy)-[2,2']bipyridine]	–	–	95%	100%	–
Cc1cc(Oc2ccnc3cc(-c4ccncc4)ccc23)c(-c2ccccn2)nc1C [Compound 19, 5,6-Dimethyl-3-(7-pyridin-4-yl-quinolin-4-yloxy)-[2,2']bipyridine]	–	–	100%	100%	–
Cc1ccc(-c2ccc3c(Oc4cc(C)c(C)nc4-c4ccccn4)ccnc3c2)cc1 [Compound 20, 5,6-Dimethyl-3-(7-p-tolyl-quinolin-4-yloxy)-[2,2']bipyridine]	–	–	90%	100%	–
Cc1cc(Oc2ccnc3cc(-c4cccc(N)c4)ccc23)c(-c2ccccn2)nc1C [Compound 21, 3-[4-(5,6-Dimethyl-[2,2']bipyridin-3-yloxy)-quinolin-7-yl]-phenylamine]	–	–	99%	100%	–
COc1cc2nccc(Oc3cc(C)c(C)nc3-c3ccccn3)c2cc1C(N)=O [Compound 22, 4-(5,6-Dimethyl-[2,2']bipyridin-3-yloxy)-7-methoxy-quinoline-6-carboxylic acid amide]	–	–	99%	–	81%
Cc1cc(Oc2ncnc3ccccc23)c(-c2ccccn2)nc1C [Compound 23, 4-(5,6-Dimethyl-[2,2']bipyridinyl-3-yloxy)-quinazoline]	–	–	78%	98%	–
Cc1cc(Oc2ncnc3ccc(Cl)cc23)c(-c2ccccn2)nc1C [Compound 24, 6-Chloro-4-(5,6-dimethyl-[2,2']bipyridin-3-yloxy)-quinazoline]	–	–	90%	99%	–
Cc1cc(Oc2ncnc3ccc(Br)cc23)c(-c2ccccn2)nc1C [Compound 25, 6-Bromo-4-(5,6-dimethyl-[2,2']bipyridin-3-yloxy)-quinazoline]	–	–	89%	99%	–
COc1ccc2ncnc(Oc3cc(C)c(C)nc3-c3ccccn3)c2c1 [Compound 26, 4-(5,6-Dimethyl-[2,2']bipyridin-3-yloxy)-6-methoxy-quinazoline]	–	–	83%	99%	–
COc1cc2ncnc(Oc3cc(C)c(C)nc3-c3ccccn3)c2cc1OC [Compound 27, 4-(5,6-Dimethyl-[2,2']bipyridin-3-yloxy)-6,7-dimethoxy-quinazoline]	–	–	100%	–	89%
Cc1cc(Oc2ccnc3ccsc23)c(-c2ccccn2)nc1C [Compound 28, 5,6-Dimethyl-3-(thieno[3,2-b]pyridin-7-yloxy)-[2,2']bipyridine]	–	–	100%	–	96%
Cc1cc(Oc2ccnc3cc(-c4ccccc4)sc23)c(-c2ccccn2)nc1C [Compound 29, 5,6-Dimethyl-3-(2-phenyl-thieno[3,2-b]pyridin-7-yloxy)-[2,2']bipyridine]	–	–	100%	–	89%
Cc1cc(Oc2ccnc3cccnc23)c(-c2ccccn2)nc1C [Compound 30, 4-(5,6-Dimethyl-[2,2']bipyridin-3-yloxy)-[1,5]naphthyridine]	–	–	84%	99%	–
Cc1cc(Oc2ccnc3ccncc23)c(-c2ccccn2)nc1C [Compound 31, 4-(5,6-Dimethyl-[2,2']bipyridin-3-yloxy)-[1,6]naphthyridine]	–	–	85%	99%	–
Cc1cc(Oc2ncnc3sccc23)c(-c2ccccn2)nc1C [Compound 32, 5,6-Dimethyl-3-(thieno[2,3-d]pyrimidin-4-yloxy)-[2,2']bipyridine]	–	–	64%	94%	–
Cc1cc(Oc2ncnc3ccsc23)c(-c2ccccn2)nc1C [Compound 33, 5,6-Dimethyl-3-(thieno[3,2-d]pyrimidin-4-yloxy)-[2,2']bipyridine]	–	–	86%	99%	–
Cc1cc(Oc2ncnc3scc(C)c23)c(-c2ccccn2)nc1C [Compound 34, 5,6-Dimethyl-3-(5-methyl-thieno[2,3-d]pyrimidin-4-yloxy)-[2,2'] bipyridine]	–	–	94%	100%	–
